The conditions of data set [1]: human plasma 37° C., ADC 200 μg/mL, A1.9 released from B7H3-ADC-07(DAR8), DXD from B7H3-C1-ADC-21(DAR4). The method, then: The appropriate concentration of internal standard stock solution was prepared with DMSO, and then acetonitrile or other reagents were used to prepare the appropriate concentration of the internal standard-containing precipitant.
Incubation of sample: the bacteriostatic agent ProClin was added to the plasma of each genera (human, cynomolgus monkey, ICR mouse) and PBS containing 1% BSA, and the final concentration of ProClin was 0.1%, Sterile operations were adopted. 40 μL working solution of test substance and 360 μL of human plasma were mixed to prepare 200 μg/mL of incubation sample. The plate was sealed with a film, and then incubated at 37° C. under 5% CO2 in an incubator, with a shaking speed of 80 times/mm. At 0 h, 4 h, 24 h, 2 d, 3 d, 7 d, 10 d, 14 d, 17 d, 21 d and 28 d, 20 μL of plasma sample was transferred, to which was added 200 μL of precipitant (containing internal standard), and completely mixed to precipitate the proteins.
All samples were subject to protein precipitating, and then centrifuged to collect the supernatant, which was diluted with water, and analyzed by LC-MS/MS.

In the next data set the test system is PANC-1 cells. As to the kind of experiment: Assay I of bioactive molecules on cell viability in vitro (CCK8). It is filed as cell-based. As to conditions: Homo sapiens, read-out: EC50(nM), killing of PANC-1 cells. On the procedure:
(§1) Tumor cells were first cultured; the bioactive molecules of the present disclosure were co-cultured with tumor cells, and then CCK8 reagent (Dojindo Laboratories (Shanghai), Cat: CK04, Lot: JJ744) was added, and the activity of dehydrogenase in mitochondria was detected by reading (detection wavelength 450 nm) on a microplate reader (manufacturer: Molecular Devices, model: SpectraMax M2), to evaluate the inhibitory effect of bioactive molecules on cell proliferation.
(§2) In vitro cell viability assay method: bioactive molecules (12 concentration gradients) were diluted with corresponding assay medium (containing 2% FBS). The tumor cells were digested by conventional methods using trypsin, and cells in tube were collected and counted, then resuspended in the corresponding assay media (containing 2% FBS). The diluted bioactive molecules were added to a 96-well plate, followed by the cells. Then, 20 μL of CCK8 reagent was added to each well, and the reaction was carried out for 4 h, then the plate was read on a microplate reader (detection wavelength was 450 nm). The experimental results are shown in Tables 6.1, 6.2, 6.3, 6.4, and 6.5.

In the next data set the test system is LS174T cells. The description is as above. It is filed as cell-based. As to conditions: Homo sapiens, read-out: EC50(nM), killing of LS174T cells. The method, then: as §1, §2
Another data set deals with NCl-H322M cells. The description is as above. It is filed as cell-based. To be noted: Homo sapiens, read-out: EC50(nM), killing of NCl-H322M cells. The method, then:
as §1, §2

The next data set concerns HCC1806 cells. Described as above. It is filed as cell-based. As to conditions: Homo sapiens, HCC1806, 72 h; 7500 cells/well, 3 days; read-out: EC50(nM), killing of HCC1806 cells. On the procedure:
as §1, §2

In a further data set the test system is A549. As to the kind of experiment: Assay II of bioactive molecules on cell viability in vitro (CCK8). It is filed as cell-based. As to conditions: Homo sapiens, CCK8, 3-4 days. On the procedure: (§3) Tumor cells NUCG-4, PC-9, HT29, NCI-H358, KYSE520, A431 and A549 were first cultured; the bioactive molecules or fragments of the present disclosure were co-cultured with tumor cells, and then CCK8 reagent (Dojindo Laboratories (Shanghai), Cat: CK04, Lot: JJ744) was added, and the activity of dehydrogenase in mitochondria was detected by reading (detection wavelength 450 nm) on a microplate reader (manufacturer: Molecular Devices, model: SpectraMax M2), to evaluate the inhibitory effect of bioactive molecules on cell proliferation.
(§4) In vitro cell viability assay method: the tumor cells were digested by conventional methods using trypsin, and cells in tube were collected and counted, and then resuspended in the corresponding assay media (containing 2% FBS), which was added to a 96-well plate at 5000-10000 cells/well. Bioactive molecules were diluted with DMSO, and then 100 μL was added to a 96-well plate, the initial concentration was 10 μM, followed by 3-fold serial dilution (12 concentration gradients). The plate was incubated for 3-4 days at 37° C. under 5% CO2. Then, 20 μL of CCK8 reagent was added to each well, and the reaction was carried out for 2-6 h. The plate was read on a microplate reader (detection wavelength was 450 nm).

The next data set relates to HT29. Described as above. It is filed as cell-based. As to conditions: Homo sapiens, HT-29; CCK8, 3-4 days. The method, then: as §3, §4
The test system of another data set is NCI-H358. Described as above. In kind it is cell-based. To be noted: Homo sapiens, CCK8, 3-4 days. The method, then:
as §3, §4

For the next data set, the system named is A431. The description is as above. It is filed as cell-based. As to conditions: Homo sapiens, A-431; CCK8, 3-4 days. The method, then: as §3, §4
A further data set relates to NUCG-4. Described as above. It is filed as cell-based. As to conditions: CCK8, 3-4 days. On the procedure:
as §3, §4

A further data set has as its system PC-9. The description is as above. To be noted: Homo sapiens, CCK8, 3-4 days. It is filed as cell-based. On the procedure: as §3, §4
The subject of data set [2] is HT29 cells. As to the kind of experiment: Assay III of bioactive molecules on cell viability in vitro (CCK8). It is filed as cell-based. To be noted: Homo sapiens, HT-29; CCK8, 3-4 days (Assay III); read-out: EC50(nM), killing of HT29 cells. The method, then:
Tumor cells HT29 (having a same source as the above) were first cultured. The bioactive molecules or fragments of the present disclosure were co-cultured with tumor cells, and then CCK8 reagent (Dojindo Laboratories (Shanghai), Cat: CK04, Lot: JJ744) was added, and the activity of dehydrogenase in mitochondria was detected by reading (detection wavelength 450 nm) on a microplate reader (manufacturer: Molecular Devices, model: SpectraMax M2), to evaluate the inhibitory effect of bioactive molecules on cell proliferation.
as §4, with “then” for “then 100 μL was”, “plate at 100 μL,” for “plate,”, “[…],” for “10 μM,”

Another data set relates to NCl-H358 cells. As to the kind of experiment: Assay I of bioactive molecules on cell viability in vitro (CCK8). It is filed as cell-based. To be noted: Homo sapiens, read-out: EC50(nM), killing of NCl-H358 cells. On the procedure:
as §1, §2

The test system of data set [3] is HT29 cells. Described as above. It is filed as cell-based. To be noted: Homo sapiens, HT-29, CCK8; read-out: EC50(nM), killing of HT29 cells. The method, then: as §1, §2
The conditions of data set [4]: cited from earlier work.

Like-named read-outs stand apart in the source and are kept apart here.

For orientation: EC50 means the concentration giving half of the maximal effect.

On to `CC[C@@]1(O)C(=O)OCc2c1cc1n(c2=O)Cc2c-1nc1cc(F)c(C)c3c1c2[C@@H](NC(=O)CO)CC3` [DXD, DXd, reference compound], for which the “Release ratio (%)” value in data set [1] (day 0) stood at 0.348%; in data set [1] (day 0.17), 1.786%; in data set [1] (day 1), 2.765%; in [1] (day 2), 3.603%; in data set [1] (day 3) it was 3.763%; in data set [1] (day 7), 4.116%. Moreover, the “Release ratio (%)” value amounted to 5.126% in data set [1] (day 10); 5.786% in [1] (day 14); 6.446% in data set [1] (day 17); 7.494% in [1] (day 21); 12.659% in data set [1] (day 28). Also, the EC50 was found to be 966 nM in the data set with PANC-1 cells; 82 nM in the data set on LS174T cells; 76.9 nM in the data set with NCl-H322M cells; 37 nM in the data set on HCC1806 cells; 262 nM with A549; 210 nM with HT29. Also, the EC50 in the data set with NCI-H358 came to 262 nM; in the data set with A431, 25.1 nM; in the data set with NUCG-4, 43.3 nM; with PC-9, 16.7 nM; in the data set with HT29 cells [2] it was 22.9 nM.
As to `CCCNCCc1c2c(nc3cc4c(cc13)OCO4)-c1cc3c(c(=O)n1C2)COC(=O)[C@]3(O)CC` [Example A1.15a, (S)-7-ethyl-7-hydroxy-14-(2-(n-propylamino)ethyl)-10,13-dihydro-11H-[1,3]dioxolo[4,5-g]pyrano[3′,4′:6,7]indolizino[1,2-b]quinolin-8,11(7H)-dione], the EC50 came out at 3.88 nM in the data set on NCl-H358 cells, 19.5 nM with LS174T cells and 3.57 nM with HT29 cells [3].
As to `CCCN(CCc1c2c(nc3cc4c(cc13)OCO4)-c1cc3c(c(=O)n1C2)COC(=O)[C@]3(O)CC)C(=O)CO` [Example A1.15b, (S)—N-(2-(7-ethyl-7-hydroxy-8,11-dioxo-7,8,11,13-tetrahydro-10H-[1,3]dioxolo[4,5-g]pyrano[3′,4′:6,7]indolizino[1,2-b]quinolin-14-yl)ethyl)-2-hydroxy-N-n-propylacetamide], the EC50 was 44.6 nM with LS174T cells and 47.5 nM in the data set with HT29 cells [3].
On to `CC[C@@]1(O)C(=O)OCc2c1cc1n(c2=O)Cc2c-1nc1cc3c(cc1c2-c1ccc(NC(=O)CN)cc1)OCO3` [Example B1.9, (S)-2-amino-N-(4-(7-ethyl-7-hydroxy-8,11-dioxo-7,8,11,13-tetrahydro-10H-[1,3]dioxolo[4,5-g]pyrano[3′,4′:6,7]indolizino[1,2-b]quinolin-14-yl)phenyl)acetamide], for which the EC50 with HT29 cells [2] stood at 262 nM.
Still for that read-out and setting: the same measure for `CC[C@@]1(O)C(=O)OCc2c1cc1n(c2=O)Cc2c-1nc1cc(F)c(C)cc1c2CCCOCNC(=O)CN` [Example B1.12, (S)-2-amino-N-((4-(4-ethyl-8-fluoro-4-hydroxy-9-methyl-3,14-dioxo-3,4,12,14-tetrahydro-1H-pyrano[3′,4′:6,7]indolizino[1,2-b]quinolin-11-yl)propoxy)methyl)acetamide]: 85.9 nM.
On to `CC[C@@]1(O)C(=O)OCc2c1cc1n(c2=O)Cc2c-1nc1cc3c(cc1c2CCCOCNC(=O)CN)OCO3` [Example B1.14, (S)-2-amino-N-((3-(7-ethyl-7-hydroxy-8,11-dioxo-7,8,11,13-tetrahydro-10H-[1,3]dioxolo[4,5-g]pyrano[3′,4′:6,7]indolizino[1,2-b]quinolin-14-yl)propoxy)methyl)acetamide], for which the EC50 in the data set with A549 came to 252 nM; in the data set on HT29, 368 nM; in the data set with NCI-H358 it was 581 nM; with A431, 68 nM; with NUCG-4 it was 185 nM; in the data set with PC-9, 34.3 nM.
In the case of `CC[C@@]1(O)C(=O)OCc2c1cc1n(c2=O)Cc2c-1nc1cc(F)c(C)cc1c2/C=C/COCNC(=O)CN` [Example B1.17, (S,E)-2-amino-N-(((3-(4-ethyl-8-fluoro-4-hydroxy-9-methyl-3,14-oxo-3,4,12,14-tetrahydro-1H-pyrano[3′,4′:6,7]indolizino[1,2-b]quinolin-11-yl)allyl)oxy)methyl)acetamide], the EC50 in the data set with HT29 cells [2] was found to be 205 nM.
Consider Trodelvy, for which the plasma half-life entry in data set [4] was “less than 24 hours”.

The record behind these values is patent US20240108745A1, “BIOACTIVE SUBSTANCE CONJUGATE, PREPARATION METHOD THEREFOR AND USE THEREOF” (MEDILINK THERAPEUTICS (SUZHOU) CO., LTD., priority 2021, published 2024).
